Experimental data from patent US20260274892A1, “MACROCYCLIC BROAD SPECTRUM ANTIBIOTICS” (RQx Pharmaceuticals, Inc., priority 2017, published 2026).

Experiments:
[1] = tested on: Methicillin Resistant Staphylococcus aureus strain USA 200; assay: Minimum inhibitory concentration (MIC), CLSI broth micro-dilution, S. aureus; format: cell-based; settings: Table 6, MRSA USA 200, cation adjusted Mueller Hinton Broth + 0.002% Tween-80, 35° C., 22 hours
Description: In vitro antimicrobial activity of each compound was determined by measuring minimal inhibitor concentrations (MICs) using the broth micro-dilution technique as approved by the Clinical and Laboratory Standards Institute (CLSI) (Methods for Dilution Antimicrobial Susceptibility Tests for Bacteria that Grow Aerobically; Approved Standard-Eighth Edition. CLSI document M07-A8. Wayne, PA: Clinical and Laboratroy Standards; 2009). Antibacterial activity was measure against two strains of bacteria: a Methicillin Resistant Staphylococcus aureus strain USA 200, (S. aureus) and Escherichia coli ATCC 25922 (E. coli), a clinically relevant Gram-negative strain. Cells were inoculated onto plates of Trypyticase Soy Agar or Luria Agar respectively and grown at 35° C. for 20 hours. Inocula suspensions were prepared by scraping cells into 1 mL of testing media (cation adjusted Mueller Hinton Broth supplemented with 0.002% v/v Tween-80) and diluting to a final OD600nm of 0.01.
Test compounds were prepared in DMSO at a concentration of 10 mg/mL. In protocol 1, the compound stocks were diluted into testing media at a concentration of 64 µg/ml and serial 2-fold dilutions were made in the same media, in 96-well U bottom microtiter dishes, for a total of 10 compound concentrations. In protocol 2, the compound stocks were diluted into testing media at a concentration of 4 µg/mL and serial 2-fold dilutions were made in the same media, in 96-well U bottom microtiter dishes, for a total of 10 compound concentrations. In protocol 3, compound stocks were diluted into testing media at a concentration of 0.5 μg/mL, with serial 2-fold dilutions conducted as described above. In protocol 4, compound stocks were diluted into testing media at a concentration of […], with serial 2-fold dilutions conducted as described above. Inocula suspensions were added to the 2-fold serial dilutions of test compounds to a final density of GD OD600nm of 0.0005 and incubated at 35° C. for 22 hours.

[2] = tested on: Escherichia coli ATCC 25922; assay: Minimum inhibitory concentration (MIC), CLSI broth micro-dilution, E. coli; format: cell-based; settings: Table 6, cation adjusted Mueller Hinton Broth + 0.002% Tween-80, 35° C.
Method in brief: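 Colonies grown 20 h at 35° C on Trypticase Soy agar (MRSA) or Luria agar (E. coli) were suspended in cation-adjusted Mueller Hinton broth with 0.002% Tween-80. Suspensions were added at OD600 0.0005 to 10-point twofold compound dilutions, then incubated 22 h at 35° C.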

[3] = Staphylococcus aureus, MRSA / USA200
[4] = Escherichia coli, ATCC25922, 22 h

MIC [1, 3] [µM]	MIC [2, 4] [µM]	Structure (SMILES)	MIC [1] [µM]	MIC ([2]; 22 hours) [µM]
0.033	0.53	CCCc1ccc(-c2ncc(C(=O)N[C@@H](CCN)C(=O)N(C)[C@@H]3C(=O)N[C@@H](C)C(=O)N[C@H](C(=O)NCC#N)Cc4ccc(OCCN)c(c4)-c4cc3ccc4OCCN)c(C)n2)c(C)c1 (racemic) [Compound 222, rac-(8S,11S,14S)-3,18-bis(2-aminoethoxy)-N-(cyanomethyl)-11-methyl-14-[methyl-[rac-(2S)-4-amino-2-[[4-methyl-2-(2-methyl-4-propyl-phenyl)pyrimidine-5-carbonyl]amino]butanoyl]amino]-10,13-dioxo-9,12-diazatricyclo[13.3.1.12,6]icosa-1(18),2(20),3,5,15(19),16-hexaene-8-carboxamide]	–	–
0.016	0.26	CCCCc1ccc(-c2ncc(C(=O)N[C@@H](CCN)C(=O)N(C)[C@@H]3C(=O)N[C@@H](C)C(=O)N[C@H](C(=O)NCC#N)Cc4ccc(OCCN)c(c4)-c4cc3ccc4OCCN)c(C)n2)c(C)c1 (racemic) [Compound 223, rac-(8S,11S,14S)-3,18-bis(2-aminoethoxy)-N-(cyanomethyl)-11-methyl-14-[methyl-[rac-(2S)-4-amino-2-[[2-(4-butyl-2-methyl-phenyl)-4-methyl-pyrimidine-5-carbonyl]amino]butanoyl]amino]-10,13-dioxo-9,12-diazatricyclo[13.3.1.12,6]icosa-1(18),2(20),3,5,15(19),16-hexaene-8-carboxamide]	–	–
0.017	0.13	Cc1nc(-c2ccc(C3(C)CC3)cc2)ncc1C(=O)N[C@@H](CCN)C(=O)N(C)[C@@H]1C(=O)N[C@@H](C)C(=O)N[C@H](C(=O)NCC#N)Cc2ccc(OCCN)c(c2)-c2cc1ccc2OCCN (racemic) [Compound 224, rac-(8S,11S,14S)-3,18-bis(2-aminoethoxy)-N-(cyanomethyl)-11-methyl-14-[methyl-[rac-(2S)-4-amino-2-[[4-methyl-2-[4-(1-methylcyclopropyl)phenyl]pyrimidine-5-carbonyl]amino]butanoyl]amino]-10,13-dioxo-9,12-diazatricyclo[13.3.1.12,6]icosa-1(18),2(20),3,5,15(19),16-hexaene-8-carboxamide]	–	–
0.016	0.19	Cc1nc(-c2ccc(S(F)(F)(F)(F)F)cc2)ncc1C(=O)N[C@@H](CCN)C(=O)N(C)[C@@H]1C(=O)N[C@@H](C)C(=O)N[C@H](C(=O)NCC#N)Cc2ccc(OCCN)c(c2)-c2cc1ccc2OCCN (racemic) [Compound 225, rac-(8S,11S,14S)-3,18-bis(2-aminoethoxy)-N-(cyanomethyl)-11-methyl-14-[methyl-[rac-(2S)-4-amino-2-[[4-methyl-2-[4-(pentafluoro-lambda6-sulfanyl)phenyl]pyrimidine-5-carbonyl]amino]butanoyl]amino]-10,13-dioxo-9,12-diazatricyclo[13.3.1.12,6]icosa-1(18),2(20),3,5,15(19),16-hexaene-8-carboxamide]	–	–
0.017	0.077	CCCC#Cc1ccc(-c2ncc(C(=O)N[C@@H](CCN)C(=O)N(C)[C@@H]3C(=O)N[C@@H](C)C(=O)N[C@H](C(=O)NCC#N)Cc4ccc(OCCN)c(c4)-c4cc3ccc4OCCN)c(C)n2)cc1 (racemic) [Compound 227, rac-(8S,11S,14S)-3,18-bis(2-aminoethoxy)-N-(cyanomethyl)-11-methyl-14-[methyl-[rac-(2S)-4-amino-2-[[4-methyl-2-(4-pent-1-ynylphenyl)pyrimidine-5-carbonyl]amino]butanoyl]amino]-10,13-dioxo-9,12-diazatricyclo[13.3.1.12,6]icosa-1(18),2(20),3,5,15(19),16-hexaene-8-carboxamide]	–	–
–	–	Cc1nc(C#CC(C)C)ncc1C(=O)N[C@@H](CCN)C(=O)N(C)[C@@H]1C(=O)N[C@@H](C)C(=O)N[C@H](C(=O)NCC#N)Cc2ccc(OCCN)c(c2)-c2cc1ccc2OCCN (racemic) [Compound 229, rac-(8S,11S,14S)-3,18-bis(2-aminoethoxy)-N-(cyanomethyl)-11-methyl-14-[methyl-[rac-(2S)-4-amino-2-[[4-methyl-2-(3-methylbut-l-ynyl)pyrimidine-5-carbonyl]amino]butanoyl]amino]-10,13-dioxo-9,12-diazatricyclo[13.3.1.12,6]icosa-1(18),2(20),3,5,15(19),16-hexaene-8-carboxamide]	0.57	4.6
0.012	0.066	Cc1nc(-c2ccc(C3CCCC3)cc2)ncc1C(=O)N[C@@H](CCN)C(=O)N(C)[C@@H]1C(=O)N[C@@H](C)C(=O)N[C@H](C(=O)NCC#N)Cc2ccc(OCCN)c(c2)-c2cc1ccc2OCCN (racemic) [Compound 230, rac-(8S,11S,14S)-3,18-bis(2-aminoethoxy)-N-(cyanomethyl)-11-methyl-14-[methyl-[rac-(2S)-4-amino-2-[[2-(4-cyclopentylphenyl)-4-methyl-pyrimidine-5-carbonyl]amino]butanoyl]amino]-10,13-dioxo-9,12-diazatricyclo[13.3.1.12,6]icosa-1(18),2(20),3,5,15(19),16-hexaene-8-carboxamide]	–	–
0.35	1.4	Cc1nc(-c2ccc(C3CCOCC3)cc2)ncc1C(=O)N[C@@H](CCN)C(=O)N(C)[C@@H]1C(=O)N[C@@H](C)C(=O)N[C@H](C(=O)NCC#N)Cc2ccc(OCCN)c(c2)-c2cc1ccc2OCCN (racemic) [Compound 231, rac-(8S,11S,14S)-3,18-bis(2-aminoethoxy)-N-(cyanomethyl)-11-methyl-14-[methyl-[rac-(2S)-4-amino-2-[[4-methyl-2-(4-tetrahydropyran-4-ylphenyl)pyrimidine-5-carbonyl]amino]butanoyl]amino]-10,13-dioxo-9,12-diazatricyclo[13.3.1.12,6]icosa-1(18),2(20),3,5,15(19),16-hexaene-8-carboxamide]	–	–
0.015	0.16	Cc1nc(-c2cnc(-c3ccc(C(C)(C)C)cc3)nc2)ncc1C(=O)N[C@@H](CCN)C(=O)N(C)[C@@H]1C(=O)N[C@@H](C)C(=O)N[C@H](C(=O)NCC#N)Cc2ccc(OCCN)c(c2)-c2cc1ccc2OCCN (racemic) [Compound 232, rac-(8S,11S,14S)-3,18-bis(2-aminoethoxy)-N-(cyanomethyl)-11-methyl-14-[methyl-[rac-(2S)-4-amino-2-[[2-[2-(4-tert-butylphenyl)pyrimidin-5-yl]-4-methyl-pyrimidine-5-carbonyl]amino]butanoyl]amino]-10,13-dioxo-9,12-diazatricyclo[13.3.1.12,6]icosa-1(18),2(20),3,5,15(19),16-hexaene-8-carboxamide]	–	–
0.016	0.13	Cc1nc(-c2ccc(C3CCCCC3)cc2)ncc1C(=O)N[C@@H](CCN)C(=O)N(C)[C@@H]1C(=O)N[C@@H](C)C(=O)N[C@H](C(=O)NCC#N)Cc2ccc(OCCN)c(c2)-c2cc1ccc2OCCN (racemic) [Compound 233, rac-(8S,11S,14S)-3,18-bis(2-aminoethoxy)-N-(cyanomethyl)-11-methyl-14-[methyl-[rac-(2S)-4-amino-2-[[2-(4-cyclohexylphenyl)-4-methyl-pyrimidine-5-carbonyl]amino]butanoyl]amino]-10,13-dioxo-9,12-diazatricyclo[13.3.1.12,6]icosa-1(18),2(20),3,5,15(19),16-hexaene-8-carboxamide]	–	–
0.0082	0.066	Cc1nc(-c2ccc3c(c2)CCC3(C)C)ncc1C(=O)N[C@@H](CCN)C(=O)N(C)[C@@H]1C(=O)N[C@@H](C)C(=O)N[C@H](C(=O)NCC#N)Cc2ccc(OCCN)c(c2)-c2cc1ccc2OCCN (racemic) [Compound 234, rac-(8S,11S,14S)-3,18-bis(2-aminoethoxy)-N-(cyanomethyl)-11-methyl-14-[methyl-[rac-(2S)-4-amino-2-[[2-(1,1-dimethylindan-5-yl)-4-methyl-pyrimidine-5-carbonyl]amino]butanoyl]amino]-10,13-dioxo-9,12-diazatricyclo[13.3.1.12,6]icosa-1(18),2(20),3,5,15(19),16-hexaene-8-carboxamide]	–	–
